2 molecules from patent US10919943B2, “Mutant proteins enabling agrochemical control of plant gene expression” (The Regents of the University of California, priority 2016, dated 2021) can be followed below.

Assay [1] deals with 35S::GFP-PYR1*^-MANDI transgenic plants. Kind of assay: Thermography of leaf temperature after chemical treatment. The class given is in vivo, Arabidopsis thaliana. The following applies: for leaf temperature: T1 plants, 24 hours after application, FIG. 10. An excerpt:
(§1) To examine the effects of over-expressing either PYR1*^-MANDI or HAB1* in Arabidopsis thaliana, we made 35S-driven GFP-PYR1*^-MANDI and GFP-HAB1* constructs by cloning the mutant genes into the binary vector pEGAD, and the resultant plasmids were transformed into Agrobacterium tumefaciens. The floral dip method was used to generate T0 transgenic seed for both constructs and the T0 seed was germinated in soil containing glufosinate to select for transgenic T1 plants. The PYR1*^-MANDI T1 plants isolated were grown for ˜5 weeks and then treated with mandipropamid, using comparisons to wild type Columbia plants and a previously constructed 35S::PYR1^MANDI transgenic strain as controls. The treated plants were thermographed 24 hours after chemical applications to examine leaf temperature, which increases after ABA responses are activated, due to reduced transpiration. To examine different mandipropamid concentrations, the plants were first treated with 1 μM mandipropamid and then 3 days later were treated again with 10 μM mandipropamid.
Several T1 transgenic seed were propagated and 3 homozygous single insertion transgenic lines identified by glufosinate segregation patterns in the T3 seedlings. GFP-PYR1*^-MANDI protein levels were established by western blotting using an anti-GFP antibody, as described above and the three lines had similar levels of protein expression.

The subject of assay [2] is 35S::PYR1^MANDI transgenic strain. The assay is described as above. The assay is classed as in vivo, Arabidopsis thaliana. The following applies: 1 μM then 10 μM mandipropamid, 24 hours after treatment; FIG. 10.
Text: as §1

In the next assay the test system is HAB1^!-2. As to the kind of experiment: Yeast two hybrid, mandipropamid-promoted interaction of PYR1 variants with HAB1^!-2. The class given is cell-based. The source says: To engineer orthogonal mandipropamid responsiveness, we introduced the PYR1^! mutation into the PYR1^MANDI receptor to create a septuple mutant called PYR1^!-MANDI (PYR1^Y58H;K59R;V81I;F108A;S122G;F159L;T162D). This mutant interacts with HAB1^! and HAB^!-2 in response to low μM mandipropamid in yeast two-hybrid assays, but is ˜100-fold less sensitive than the PYR1^MANDI/HAB1 interaction, which responds to concentrations in the low nM range (FIG. 3).
To improve sensitivity, we mutagenized ligand contacting and interface residues in PYR1^!-MANDI using NNK primers, pooled the mutant libraries, and used the mutagenized receptors in selection experiments using to identify enhancer mutations. The NNK mutagenesis screen targeted the following residues: P55, H60, F61, I62, K63, V83, S85, G86, L87, P88, A89, S92, E94, I110, H115, R116, L117, Y120, E141, P148, G150, N151, D154, D155, T156, M158, A160, V163, V164, L166, N167, and K170. […] Since M158 and A160 flank the […] mutation present in PYR1^MANDI, we inferred that the closely located orthogonalizing T162D mutation in PYR1^!-MANDI may have reduced mandipropamid sensitivity by altering the local structure of the C-terminal α3-helix, which participates in ligand-induced conformational changes needed for PP2C binding (Nishimura et al., 2009). We therefore simultaneously mutagenized positions M158, F159 and A160 using a primer with degenerate NNK codons at all three positions. F159 was included in this mutagenesis because we have previously observed that multiple substitutions at F159 (A,C,I,L,M,T, or V) are permissive for mandipropamid responsiveness (S. Y. Park et al., n.d.), and sought to test whether residues other than leucine at position 159 might function better in the context of simultaneous changes to both A160 and M158. The mutagenic primer was used in QuickChange mutagenesis reactions using pBD-PYR1^!-MANDI template, and a library of ˜12,000 clones was generated. Plasmid DNA for the library was prepared from pooled E. coli transformants, and subsequently transformed into S. cerevisiae strain MAV99 harboring pACT-HAB1^!-2. ˜20,000 yeast transformants were generated, pooled, and plated onto SD(-Leu,-Trp) agar media supplemented with 0.1% fluorotic acid (to select against mutants that interact in a ligand-independent fashion). The surviving cells were collected and plated onto SD(Leu,-Trp,-Ura) plates supplemented with 50 nM mandipropamid. The colonies displaying the best uracil-independent growth were isolated and retested on different mandipropamid concentrations and then stained in β-galactosidase assays to rank their relative strength.

For the molecule `C#CCOc1ccc(CCNC(=O)C(OCC#C)c2ccc(Cl)cc2)cc1OC` (stereo not drawn) [mandipropamid], the leaf temperature result in assay [1] (1 μM mandipropamid) was “Neither of the treatments elicited substantial alterations in leaf temperature”; in assay [1] (10 μM mandipropamid (3 days after 1 μM)) it was “Neither of the treatments elicited substantial alterations in leaf temperature”; in assay [2] it was “strong increase in leaf temperature”. For the same molecule, in assay [1] (two homozygous lines, 5 μM mandipropamid, FIG. 11), the “leaf temperature in comparison to wild type control plants” value is “did not reveal differences in leaf temperature”.

B1: PYR1*^-MANDI: PYR1 mutant with 9 mutations, most sensitive to mandipropamid (protein, listed as Arabidopsis thaliana)
chain: MPSELTPEERSELKNSIAEFHTYQLDPGSCSSLHAQRIHAPPELVWSIVRRFDKPQTHRHFIKSCSVEQNFEMRVGCTRDIIVISGLPANTSTERLDILDDERRVTGASIIGGEHRLTNYKGVTTVHRFEKENRIWTVVLESYVVDMPEGNSEDDTRIVVDDVVKLNLQKLATVAEAMARNSGDGSGSQVT
With B1, the “mandipropamid concentration to which the interaction responds” value in the assay on HAB1^!-2 (FIG. 3, FIG. 4) is listed as “nM levels”. For the same molecule, the “relative mandipropamid sensitivity among selected mutants” value in the assay on HAB1^!-2 (β-galactosidase assays on different mandipropamid concentrations) is reported as “most sensitive mutant”.
